From US10813904B2, “Small molecule anticancer agents” (University of Florida Research Foundation, Incorporated, priority 2017, dated 2020)
Entries after “also recorded” stand apart in the source; their conditions may differ.

Key:
Type in all cases: cell-based
[1] = tested on: MDA-MB-468 cells; assay: Immunoblot analysis of MDA-MB-468 cell extracts; settings: for ER stress response / UPR activation / HER3 levels / Akt phosphorylation / PARP cleavage (cell death): 2-DOG 4 mM; for ER stress response / UPR activation / Akt phosphorylation / PARP cleavage (cell death): DTDO 20 μM; for ATF4 and CHOP expression: compared with 20 μM RBF3
Procedure: (§1) The following cell lines were purchased from American Type Culture Collection (ATCC) (Manassas, Va.): MDA-MB-468, BT474, T47D, SKBR3, MDA-MB-231, HCC1954, HEK 293, TSC2-Ang1, and BxPC3. The HCI-012 cell line was derived from the HCI-012 Patient-Derived Xenograft tumor line provided by Dr. Alana Welm using conditional cell reprogramming. Wild type and eIF2α[S51A] homozygous knock-in Mouse Embryo Fibroblasts (MEFs) were described previously.
(§2) Cells were grown in Dulbecco's modified Eagle's medium (GE Healthcare Life Sciences Logan, Utah) supplemented with 10% fetal bovine serum (10% FBS-DMEM) in a humidified 37° C. incubator with 5% CO2. Cell lysates were prepared using a buffer containing 1% Triton X100, 20 mM HEPES (pH 7.4), 1 mM EDTA, 1 mM EGTA, 0.1% 3-mercaptoethanol, 5% glycerol, 10 nM microcystin, 200 μM Na3VO4 and 40 mM Na2H2P2O7 as described previously.
(§3) Immunoblot analysis was carried out using primary antibodies purchased from Santa Cruz Biotechnology (Dallas, Tex.) [Actin, sc-1616-R; ERK, sc-93; JNK, sc-572; P-JNK, sc-6254; Src, sc-18; EGFR, sc-03; GRP78, sc-13539; Phosphotyrosine (PY99), sc-7020], Cell Signaling Technology (Beverly, Mass.) [Akt, #4691; P-Akt[T308], #13038; P-Akt[S473], #9271; ATF4, #11815; CHOP, #2895; P-Src[Y527], #2105; EGFR, #4267; HER2, #2165; HER3, #4754; Calnexin, #2679; #13024; P-Erk, #9101; IRE1α, #3294; XBP1s, #12782; PARP, #9532; PDI, #3501; PERK, #5683; S6, #2212; P-S6, #2211; P-Src[Y416], #6943], BD Transduction Laboratories (San Jose, Calif.) [PAI-1, 612024], Millipore (Temecula, Calif.) [anti-phosphotyrosine (4G10), 05-321], and Sigma-Aldrich (St. Louis, Mo.) [anti-FLAG (M2), F3165]. To quantify immunoblot results, bands were analyzed using ImageJ (imagej.nih.gov/ij/) and each band was normalized to the corresponding Actin loading control band.

[2] = tested on: BT474 cells; assay: Immunoblot analysis of BT474 cell extracts
Procedure: as §1, §2, §3

[3] = tested on: MDA-MB-468 or BT474 cells; assay: Immunoblot analysis, MDA-MB-468 or BT474 cells (text does not separate the lines); settings: for DDA activation of the ER stress response when protein synthesis is inhibited: 20 μM RBF3 with 20 μM CHX or 5 μg/ml Puromycin
Procedure: as §2, §3

[4] = tested on: MDA-MB-468 cells; assay: MTT cell viability assay, MDA-MB-468; settings: 72 hours, increasing concentrations
Procedure: (§4) Cell viability was evaluated using MTT (3-(4,5-dimethylthiazol-2-yl)-2,5-diphenyltetrazolium bromide) assays carried out based on the manufacturer's instructions (kit CGD1, Sigma-Aldrich, St. Louis, Mo.)

[5] = tested on: BT474 cells; assay: MTT cell viability assay, BT474; settings: 72 hours
Procedure: as §4

[6] = tested on: XBP1 mRNA splicing in MDA-MB-468 cells; assay: RT-PCR of XBP1 mRNA splicing; settings: 24 hours; RBF3 20 μM, DTT 2 mM
Procedure: RNA was isolated from MDA-MB-468 and BT474 cells with Trizol Reagent (Invitrogen) according to the manufacturer's instructions, and reverse transcribed to cDNA under the following conditions: 25° C. for 10 min, 42° C. for 30 min, and 95° C. for 5 min. PCR was performed using XBP1 and β-Actin primers. The primers used to amplify XBP1 are as follows: Forward: […] and Reverse: […]. The primers used to amplify (3-Actin are as follows: Forward: […] and Reverse: […]. Reactions were performed as follows: 96° C. for 5 min followed by 35 cycles of 95° C. for 45 sec, 60° C. for 1 min, and 72° C. for 30 sec. Reaction products were visualized on 3% agarose gels.

[7] = tested on: Mouse Embryo Fibroblasts (MEFs); assay: Immunoblot analysis of Mouse Embryo Fibroblasts; settings: 24 hours, thapsigargin 400 nM, tunicamycin 500 ng/ml; for Akt phosphorylation, wild type MEFs / ER stress response / UPR, wild type MEFs / PARP cleavage, wild type MEFs: RBF3 20 μM, DTT 5 mM
Procedure: as §1, §2, §3

[8] = tested on: HCC1954 cells; assay: Immunoblot analysis of HCC1954 cells; settings: 24 hour; 20 μM RBF3, 20 μM Lapatinib
[9] = tested on: T47D cells; assay: Immunoblot analysis of T47D stable cell lines (vector, EGFR or HER2 overexpressing); settings: 20 μM NSC624205, 24 hours
Procedure: Recombinant retroviruses were prepared and used to produce stable cell lines as described previously. Retroviral vectors encoding EGFR (plasmid 11011, [68]) and HER2 (plasmid 40978 [69]) were from Addgene (Cambridge, Mass.).
as §2, with “previously. […]” for “previously.”

[10] = increasing concentration, 24 hours (FIG. 5B)
[11] = RBF3 20 μM, thapsigargin 400 nM, DTT 2 mM
[12] = thapsigargin 400 nM, tunicamycin 500 ng/ml, DTT 2 mM
[13] = 24 hours, RBF3 20 μM, 2-DOG 4 mM
[14] = 24 hours, RBF3 20 μM, thapsigargin 400 nM
[15] = 2.5 μM Gefitinib or Lapatinib, 24 hours

`C[C@@H]1C[C@@H]([C@H](O)CC2CC(=O)NC(=O)C2)C(=O)[C@@H](C)C1` [CHX, cycloheximide] was tested, and the “RBF3-mediated UPR on co-treatment with CHX” value ([1]; 2-16 hrs) was “rapidly and persistently blocked”, the “HER2 expression, RBF3 with CHX” value ([2]; 24 hour, 20 μM RBF3, 20 μM CHX) was “partially restored” and the “DDA-mediated downregulation of EGFR or HER3, with CHX” value ([3]; 8 hours, 20 μM RBF3, 20 μM CHX) was “did not overcome”. The “RBF3-induced PARP cleavage and Akt dephosphorylation, with CHX” value ([3]; 8 hours, 20 μM RBF3, 20 μM CHX) was “partly overcame”, the “DDA activation of the ER stress response when protein synthesis is inhibited” value ([3]; 8 hours) was “reduced” and the “CHX blockade of RBF3-induced PARP cleavage” value ([3]; 24 hour treatment) was “less apparent”.

With `O=C(CCSSCCCCS(=O)[O-])OCC(COC(=O)CCSSCCCCS(=O)[O-])(COC(=O)CCSSCCCCS(=O)[O-])COC(=O)CCSSCCCCS(=O)[O-].[Na+].[Na+].[Na+].[Na+]` (centres unmarked) [PEMP-DDA] the “Akt phosphorylation, comparison of bi-, tri- and tetravalent DDAs” value [1, 10] was “more than RBF3 or Bn-DDA”, the “HER3 levels, comparison of bi-, tri- and tetravalent DDAs” value [1, 10] was “more than RBF3 or Bn-DDA” and the “cell viability (MTT)” value [4] was “reduced cell viability in a concentration-dependent manner”. For the same molecule, the “HER2 expression, quantified, compared with RBF3” value ([2]; same drug concentrations, 24 hours (FIG. 6B)) was “significantly more than RBF3”, the “PARP cleavage (cPARP), quantified, compared with RBF3” value ([2]; same drug concentrations, 24 hours (FIG. 6C)) was “significantly more than RBF3” and the “cell viability (MTT)” value [5] was “reduced BT474 cell viability more than RBF3”.

For `O[C@H](CS)[C@H](O)CS` (racemic) [DTT, dithiothreitol], the “ER stress response / UPR activation” value ([1]; 24 hours, DTT 2 mM) was “only weakly activated”, the GRP78 expression ([1]; 24 hours, RBF3 20 μM, DTT 2 mM) was “only weakly induces” and the HER3 levels ([1]; 24 hours, RBF3 20 μM, DTT 2 mM) was “less so; also recorded: induces downregulation”. For the same molecule, the Akt phosphorylation ([1]; 24 hours, RBF3 20 μM, DTT 2 mM) was “suppresses”, the “PARP cleavage (cell death)” value ([1]; 24 hours, RBF3 20 μM, DTT 2 mM) was “only weakly induces” and the EGFR levels ([1]; 24 hours, RBF3 20 μM, thapsigargin 400 nM, tunicamycin 500 ng/ml, DTT 2 mM) was “induces downregulation”. For the same molecule, the XBP1s expression [1, 11] was “does not upregulate”, the “ATF4 and CHOP expression” value [1, 12] was “does not upregulate” and the “IRE1-dependent XBP1 mRNA processing / splicing” value [6] was “does not upregulate”. For the same molecule, the “EGFR and HER2 expression” value ([2]; 24 hours, RBF3 20 μM) was “only does so in the MDA-MB-468 line”, the “XBP1s and GRP78 expression (ER stress markers)” value ([2]; 24 hours, RBF3 20 μM) was “increased” and the Akt phosphorylation [2, 13] was “decreased”. The “ATF4 and CHOP expression” value [2, 14] was “little upregulation”, the “concentrations that activate UPR / induce a similar level of ER stress” value [3] was “millimolar concentrations” and the “Akt phosphorylation, wild type MEFs” value [7] was “weakly suppressed”. The “ER stress response / UPR, wild type MEFs” value [7] was “did not induce” and the “PARP cleavage, wild type MEFs” value [7] was “induced PARP cleavage”.

In the case of `O=CC[C@@H](O)[C@H](O)[C@H](O)CO` [2-DOG, 2-deoxyglucose], the “ER stress response / UPR activation” value ([1]; 24 hours, DTT 2 mM) is reported as “strongly activated UPR”, the HER3 levels ([1]; 24 hours, RBF3 20 μM, DTT 2 mM) is reported as “did not cause downregulation” and the Akt phosphorylation ([1]; 24 hours, RBF3 20 μM, DTT 2 mM) is reported as “did not cause downregulation”. The “PARP cleavage (cell death)” value ([1]; 24 hours, RBF3 20 μM, DTT 2 mM) was “did not increase cell death”, the HER3 expression ([2]; 24 hours, 2-DOG 4 mM) was “did not cause downregulation” and the PARP cleavage ([2]; 24 hours, 2-DOG 4 mM) was “did not increase cell death”. For the same molecule, the UPR activation ([2]; 24 hours, 2-DOG 4 mM) was “strongly activated UPR” and the Akt phosphorylation [2, 13] was “did not cause downregulation”.

`NCCOB(c1ccccc1)c1ccccc1` [2-APB, 2-aminoethoxydiphenyl borate] was tested, and the “RBF3-induced downregulation of HER3, Akt dephosphorylation, or PARP cleavage, with 2-APB” value [3] was “did not alter” and the “RBF3-mediated GRP78 upregulation, with 2-APB” value [3] was “reduced”.

tunicamycin was tested, and the “ATF4 and CHOP expression” value [1, 12] was “more effectively than RBF3”, the “Akt phosphorylation, wild type MEFs” value [7] was “markedly suppressed” and the “ER stress response / UPR, wild type MEFs” value [7] was “induced a robust UPR”. The “PARP cleavage, wild type MEFs” value [7] was “strongly upregulated”, the “CHOP, ATF4, and GRP78 upregulation in eIF2α[S51A] knock-in MEFs” value [7] was “significantly blunted” and the “PARP cleavage or XBP1s upregulation, effect of S51A eIF2a mutation” value [7] was “did not affect”.

For `CS(=O)(=O)CCNCc1ccc(-c2ccc3ncnc(Nc4ccc(OCc5cccc(F)c5)c(Cl)c4)c3c2)o1` [Lapatinib], the “concentration of RBF3 required to downregulate HER3 levels and Akt phosphorylation, on co-treatment” value [1, 15] was “lowered”, the “CHOP expression, Lapatinib with RBF3” value [8] was “cooperated with RBF3 to upregulate” and the “RBF3-induced UPR with respect to GRP78, XBP1s, or ATF4 levels, with Lapatinib” value [8] was “only weakly potentiated”.

With `COc1cc2ncnc(Nc3ccc(F)c(Cl)c3)c2cc1OCCCN1CCOCC1` [Gefitinib] the “CHOP expression, combination with RBF3” value [1, 15] was “cooperated with RBF3 to upregulate” and the “concentration of RBF3 required to downregulate HER3 levels and Akt phosphorylation, on co-treatment” value [1, 15] was “lowered”.

For `O=S(O)CCCCSSCCCCSSCCCCS(=O)O` [NSC624205], the “HER3 expression in EGFR or HER2 overexpressing T47D cells” value [9] was “reduced HER3 expression to very low levels; also recorded: more sensitive to downregulation”.

With `COc1ccc(C[C@H](N)C(=O)N[C@H]2[C@@H](O)[C@H](n3cnc4c(N(C)C)ncnc43)O[C@@H]2CO)cc1` [Puromycin, puromycin] the “DDA activation of the ER stress response when protein synthesis is inhibited” value ([3]; 8 hours) was “reduced”.

`C/C=C(/C)C(=O)O[C@H]1C(C)=C2[C@H]([C@@H]1OC(=O)CCCCCCC)[C@@](C)(OC(C)=O)C[C@H](OC(=O)CCC)[C@@]1(O)[C@H]2OC(=O)[C@@]1(C)O` [thapsigargin] was tested, and the XBP1s expression [1, 11] was “more strongly than RBF3”, the “ATF4 and CHOP expression” value [1, 12] was “more effectively than RBF3” and the “ATF4 and CHOP expression” value ([1]; thapsigargin 400 nM, tunicamycin 500 ng/ml, DTT 2 mM, listed as Thapsigargin) was “more strongly than RBF3”. For the same molecule, the “ATF4 and CHOP expression” value [2, 14] was “strongly upregulated”, the PERK electrophoretic mobility ([2]; 24 hours, thapsigargin 400 nM) was “more strongly decreased” and the “Akt phosphorylation, wild type MEFs” value [7] was “markedly suppressed”. The “ER stress response / UPR, wild type MEFs” value [7] was “induced a robust UPR”, the “PARP cleavage, wild type MEFs” value [7] was “strongly upregulated” and the “CHOP, ATF4, and GRP78 upregulation in eIF2α[S51A] knock-in MEFs” value [7] was “significantly blunted”. The “PARP cleavage or XBP1s upregulation, effect of S51A eIF2a mutation” value [7] was “did not affect”.
